Measured values published in PMC7435673, “Synthesis of α-Aminophosphonic Acid Derivatives Through the Addition of O- and S-Nucleophiles to 2H-Azirines and Their Antiproliferative Effect on A549 Human Lung Adenocarcinoma Cells” (Molecules, 2020).
Where two headings read alike, the source gives them in different places.

Columns and labels:
[1] = system: human cancer cell line A549 (carcinomic human alveolar basal epithelial cells); experiment: Cytotoxicity (antiproliferative) CCK-8 assay, A549; conditions: for IC50: read-out: Cytotoxicity IC50 Lung A549; for toxicity toward A549 (in words): in vitro, CCK-8
From the text: (§1) The cytotoxicity of the new α-aminophosphine oxide and phosphonate acetals 4 and 5, β-keto-α-aminophosphonate 6, aziridines 7, 10 and 14, and allylic α-aminophosphine oxides and phosphonates 8, 9, 11, 12, 15 and 16 was investigated in vitro by checking their antiproliferative activities against the human cancer cell line A549 (carcinomic human alveolar basal epithelial cells). […] In order to assess growth inhibition, cell counting kit (CCK-8) assay was employed. […] Likewise, healthy lung cells, such as MRC-5 non-malignant lung fibroblasts were tested to study the selectivity of the cytotoxicity [49].
(§2) All stock solutions of the investigated compounds were prepared by dissolving the powered materials in appropriate amounts of DMSO. The final concentration of DMSO never exceeded 5% (v/v) in reactions. The stock solution was stored at 5 °C until it was used.
(§3) Cells were cultured according to the supplier’s instructions. […] On day 2, compounds were added and samples were incubated for 48 h. […] The absorbance of each well was determined by an Automatic ELISA Reader System (Multiskan FC, Thermo Fisher Scientific, Waltham, MA, USA) at 450 nm wavelength.

in vitro = conditions: human
From the text: as §1, §2, §3

[2] = system: Human colon carcinoma cell line (RKO); experiment: Cytotoxicity (antiproliferative) CCK-8 assay, RKO; conditions: for IC50: Homo sapiens, Colon carcinoma cell, 48 h, read-out: cytotoxicity value against human colon carcinoma cell line (RKO); for toxicity toward RKO (in words): in vitro, CCK-8
Method: Human colon carcinoma cell line (RKO) was also used to test the antiproliferative activity of some of our compounds. In order to assess growth inhibition, cell counting kit (CCK-8) assay was employed.
as §2
Cells were cultured according to the supplier’s instructions. Cells were seeded in 96-well plates at a density of 2–4 × 10^3 cells per well and incubated overnight in 0.1 mL of media supplied with 10% Fetal Bovine Serum (Lonza) in 5% CO2 incubator at 37 °C. On day 2, compounds were added and samples were incubated for 48 h. After treatment, 10 μL of cell counting kit-8 was added into each well for additional 2 h incubation at 37 °C. The absorbance of each well was determined by an Automatic ELISA Reader System (Multiskan FC, Thermo Fisher Scientific, Waltham, MA, USA) at 450 nm wavelength.

[3] = system: MRC-5 non-malignant lung fibroblasts; experiment: Cytotoxicity CCK-8 assay, MRC-5 (selectivity); conditions: in vitro, CCK-8
From the text: as §1, §2, §3

[4] = Cytotoxicity CCK-8 assay, MRC-5 (selectivity); conditions: human, MRC-5 non-malignant lung fibroblasts
From the text: as §1, §2, §3

[5] = CCK-8, 48 h incubation, concentration corresponding to 50% growth inhibition

melting point [°C] | Compound | IC50 ([1]; Homo sapiens, A549, 48 h) [µM] | IC50 at 48 h [4] [µM] | further results
– | O=P(c1ccccc1)(c1ccccc1)[C@@H]1N[C@]1(Sc1ccccc1)c1ccccc1 (relative stereo) [Compound 14c, Diphenyl [(2S*,3S*)-3-phenyl-3-(phenylthio)aziridin-2-yl]phosphine oxide] | 1.1 ± 0.32 | – | IC50 [2]: 9.7 µM; toxicity toward MRC-5 cell line (in words) [3]: good cytotoxicity; IC50 at 48 h (in vitro): 4.9 ± 0.49 µM
125 to 127 | COC(C)(OC)C(N)P(=O)(c1ccccc1)c1ccccc1 (centres unmarked) [Compound 4a, (1-Amino-2,2-dimethoxypropyl) diphenylphosphine oxide] | 4.4 ± 0.72 | > 50 | IC50 [2]: > 50 µM; toxicity toward RKO (in words) [2]: do not exhibited any toxicity
96 to 97 | CCC(OC)(OC)C(N)P(=O)(c1ccccc1)c1ccccc1 (centres unmarked) [Compound 4b, (1-Amino-2,2-dimethoxybutyl)diphenylphosphine oxide] | 21.3 ± 0.22 | > 50 | –
113 to 115 | COC(OC)(c1ccccc1)C(N)P(=O)(c1ccccc1)c1ccccc1 (centres unmarked) [Compound 4c, (1-Amino-2,2-dimethoxy-2-phenylethyl)diphenylphosphine oxide] | 16.1 ± 2.03 | > 50 | –
126 to 128 | CCOC(C)(OCC)C(N)P(=O)(c1ccccc1)c1ccccc1 (centres unmarked) [Compound 4d, (1-Amino-2,2-diethoxypropyl)diphenylphosphine oxide] | 9.6 ± 1.13 | > 50 | –
– | COC(C)(OC)C(N)P(=O)(OC(C)C)OC(C)C (centres unmarked) [Compound 4e, Diisopropyl (1-amino-2,2-dimethoxypropyl)phosphonate] | – | – | IC50 [1, 5]: 4.6 ± 0.31 µM
– | CCOP(=O)(OCC)C(N)C(C)(OC)OC (centres unmarked) [Compound 4f, Diethyl (1-amino-2,2-dimethoxypropyl)phosphonate] | – | – | IC50 [1, 5]: 1.3 ± 0.1 µM
205 to 207 | COC(C)(OC)C(NS(=O)(=O)c1ccc(C)cc1)P(=O)(c1ccccc1)c1ccccc1 (centres unmarked) [Compound 5a, N-[1-(Diphenylphosphoryl)-2,2-dimethoxypropyl]-4-methylbenzenesulfonamide] | 8.2 ± 0.23 | > 50 | –
– | COC(C)(OC)C(NS(=O)(=O)c1ccc(C)cc1)P(=O)(OC(C)C)OC(C)C (centres unmarked) [Compound 5b, Diisopropyl [2,2-dimethoxy-1-((4-methylphenyl)sulfonamido)propyl]phosphonate] | 1.7 ± 0.3 | > 50 | –
– | CCOP(=O)(OCC)C(NS(=O)(=O)c1ccc(C)cc1)C(C)(OC)OC (centres unmarked) [Compound 5c, Diethyl [2,2-dimethoxy-1-((4-methylphenyl)sulfonamido)propyl]phosphonate] | 4.5 ± 0.45 | – | IC50 (in vitro): > 50 µM
– | CCOC(C)(OCC)C(NS(=O)(=O)c1ccc(C)cc1)P(=O)(OCC)OCC (centres unmarked) [Compound 5d, Diethyl [2,2-diethoxy-1-((4-methylphenyl)sulfonamido)propyl]phosphonate] | 3.7 ± 0.49 | – | IC50 (in vitro): > 50 µM
121 to 122 | CC(=O)C(NS(=O)(=O)c1ccc(C)cc1)P(=O)(OC(C)C)OC(C)C (centres unmarked) [Compound 6, Diisopropyl [1-((4-methylphenyl)sulfonamido)-2-oxopropyl]phosphonate] | > 50 | – | toxicity toward A549 (in words) [1]: do not exhibited any toxicity
– | C=C(OCC(F)(F)F)C(N)P(=O)(c1ccccc1)c1ccccc1 (centres unmarked) [Compound 8, [1-Amino-2-(2,2,2-trifluoroethoxy)allyl]diphenylphosphine oxide] | > 50 | > 50 | toxicity toward A549 (in words) [1]: do not exhibited any toxicity effect
201 to 203 | C=C(OCC(F)(F)F)C(NS(=O)(=O)c1ccc(C)cc1)P(=O)(c1ccccc1)c1ccccc1 (centres unmarked) [Compound 9, N-[1-(Diphenylphosphoryl)-2-(2,2,2-trifluoroethoxy)allyl]-4-methylbenzenesulfonamide] | 3.5 ± 0.77 | > 50 | –
– | C=C(Oc1ccccc1)C(N)P(=O)(c1ccccc1)c1ccccc1 (centres unmarked) [Compound 11a, (1-Amino-2-phenoxyallyl)diphenylphosphine oxide] | 1.9 ± 0.13 | > 50 | IC50 [2]: > 50 µM; toxicity toward RKO (in words) [2]: do not exhibited any toxicity
– | C=C(Oc1ccc2ccccc2c1)C(N)P(=O)(c1ccccc1)c1ccccc1 (centres unmarked) [Compound 11b, [1-Amino-2-(naphyhalen-2-yloxy)allyl]diphenylphosphine oxide] | 2.7 ± 0.44 | 33.6 ± 3.73 | –
– | C=C(Sc1ccccc1)C(N)P(=O)(c1ccccc1)c1ccccc1 (centres unmarked) [Compound 15a, [1-Amino-2-(phenylthio)allyl]diphenylphosphine oxide] | 2.6 ± 0.68 | 15.9 ± 2.79 | IC50 [2]: > 50 µM; toxicity toward RKO (in words) [2]: do not exhibited any toxicity
– | C=C(Sc1ccc(C)cc1)C(N)P(=O)(c1ccccc1)c1ccccc1 (centres unmarked) [Compound 15b, [1-Amino-2-(p-tolylthio)allyl]diphenylphosphine oxide] | 5.1 ± 0.77 | 14.9 ± 1.61 | –
– | C=C(Sc1ccc(F)cc1)C(N)P(=O)(c1ccccc1)c1ccccc1 (centres unmarked) [Compound 15c, [1-Amino-2-((4-fluorophenyl)thio)allyl]diphenylphosphine oxide] | 0.1 ± 0.08 | > 50 | IC50 [2]: > 50 µM; toxicity toward RKO (in words) [2]: do not exhibited any toxicity
– | C=C(Sc1ccc(OC)cc1)C(N)P(=O)(c1ccccc1)c1ccccc1 (centres unmarked) [Compound 15d, [1-Amino-2-((4-methoxyphenyl)thio)allyl]diphenylphosphine oxide] | 2.6 ± 0.42 | > 50 | –
– | C=C(Sc1ccccc1)C(N)P(=O)(OCC)OCC (centres unmarked) [Compound 15e, Diethyl [1-amino-2-(phenylthio)allyl]phosphonate] | – | – | IC50 [1, 5]: 7.2 ± 0.49 µM
199 to 201 | C=C(Sc1ccccc1)C(NS(=O)(=O)c1ccc(C)cc1)P(=O)(c1ccccc1)c1ccccc1 (centres unmarked) [Compound 16a, N-[1-(Diphenylphosphoryl)-2-(phenylthio)allyl]-4-methylbenzenesulfonamide] | 1.2 ± 0.09 | > 50 | –
180 to 182 | C=C(Sc1ccc(C)cc1)C(NS(=O)(=O)c1ccc(C)cc1)P(=O)(c1ccccc1)c1ccccc1 (centres unmarked) [Compound 16b, N-[1-(Diphenylphosphoryl)-2-(p-tolylthio)allyl]-4-methylbenzene-sulfonamide] | 2.1 ± 0.15 | > 50 | –

Compound | melting point [°C] | IC50 ([1]; Homo sapiens, A549, 48 h) [µM] | IC50 at 48 h [4] [µM] | further results
C[C@@]1(OCC(F)(F)F)N[C@H]1P(=O)(c1ccccc1)c1ccccc1 (relative stereo) [Compound 7, [(2S*,3S*)-3-Methyl-3-(2,2,2-trifluoroethoxy)aziridin-2-yl]diphenylphosphine oxide] | 98 to 100 | 3.6 ± 0.7 | – | IC50 at 48 h (in vitro): > 50 µM
C[C@@]1(Oc2ccccc2)N[C@H]1P(=O)(c1ccccc1)c1ccccc1 (relative stereo) [Compound 10a, [(2S*,3S*)-3-Methyl-3-phenoxyaziridin-2-yl]diphenylphosphine oxide] | 124 to 126 | 13.3 ± 1.69 | – | IC50 at 48 h (in vitro): > 50 µM
C=C(Oc1ccccc1)C(NS(=O)(=O)c1ccc(C)cc1)P(=O)(OCC)OCC (centres unmarked) [Compound 12a, Diethyl [1-((4-methylphenyl)sulfonamido)-2-phenoxyallyl]phosphonate] | 117 to 119 | 4.8 ± 0.9 | – | IC50 (in vitro): > 50 µM
C=C(Oc1ccc2ccccc2c1)C(NS(=O)(=O)c1ccc(C)cc1)P(=O)(OCC)OCC (centres unmarked) [Compound 12b, Diethyl [1-((4-methylphenyl)sulfonamido)-2-(naphthalen-2-yloxy)allyl]-phosphonate] | 147 to 149 | 2.1 ± 0.22 | – | IC50 (in vitro): 17.5 ± 1.47 µM
C=C(Sc1ccccc1)C(NS(=O)(=O)c1ccc(C)cc1)P(=O)(OCC)OCC (centres unmarked) [Compound 16c, Diethyl [1-((4-methylphenyl)sulfonamido)-2-(phenylthio)allyl]phosphonate] | 99 to 101 | 0.2 ± 0.07 | – | IC50 [2]: > 50 µM; toxicity toward RKO (in words) [2]: do not exhibited any toxicity; IC50 (in vitro): 24.1 ± 3.55 µM
C=C(Sc1ccc(F)cc1)C(NS(=O)(=O)c1ccc(C)cc1)P(=O)(OCC)OCC (centres unmarked) [Compound 16d, Diethyl [2-((4-fluorophenyl)thio)-1-((4-methylphenyl)sulfonamido)-allyl]-phosphonate] | 117 to 119 | 3 ± 0.98 | – | IC50 (in vitro): > 50 µM
C=C(Sc1ccc(C)cc1)C(NS(=O)(=O)c1ccc(C)cc1)P(=O)(OCC)OCC (centres unmarked) [Compound 16e, Diethyl [1-((4-methylphenyl)sulfonamido)-2-(p-tolylthio)allyl]phos-phonate] | 168 to 170 | 3.9 ± 0.63 | – | IC50 (in vitro): > 50 µM
